Results from US20110306579A1, “METHODS OF NEUROPROTECTION USING NEUROPROTECTIVE STEROIDS AND A VITAMIN D” (EMORY UNIVERSITY, priority 2009, published 2011).

Key:
[1] = tested on: E18 rat primary cortical neurons; experiment: Morphological analysis of cortical cultures (phase contrast); type: cell-based; conditions: glutamate 0.5 μM for 24 h; data not shown
Text: Changes in the morphology of neurons treated with different drugs in various groups were observed using a phase-contrast microscope (Nikon). Primary cultures were mainly observed for neurite outgrowth, a hallmark feature of healthy cells, and the density of healthy cells in different groups.

[2] = tested on: 20-month-old male Fischer 344 rats; experiment: Spontaneous locomotor activity (open field) after TBI; type: in vivo, rat; conditions: 72 hours after injury; normalized to sham
Text: The animals in this study were separated into two groups, vitamin D normal (D-normal) and vitamin D deficient (D-deficient). […] Animals in the D-deficient group were maintained on the diet for at least 21 days prior to surgery. […] For this same reason the null diet was not altered in any other way, and the rats assigned to the D-deficient group were maintained on it until they were killed for harvesting of brain tissue. Since vitamin D is activated by UVB light (280-315 nm wavelength), the overhead lights were modified to not produce radiation in this range.
Animals dehydrated due to blood loss were given 3 mL of lactated Ringer's solution subcutaneously within 6 hours of injury.
Animals were assigned to D-normal or D-deficicnt groups. […] The same assignment was followed for both 24-hour and 72-hour survival groups. […] All drug treatments were dissolved in vehicle, and injection volume was equally proportional to each animal's weight across all groups. The intact sham (SHAM) groups served to provide baseline data and therefore received no injury or injections.
In addition to molecular measures of inflammatory cytokines, the behavioral effects of the various treatments were examined. Since this study was limited to the short term effects on inflammation, only short-term Spontaneous Locomotor Activity was used.

[3] = tested on: moderate to severe TBI patients; conditions: cited from earlier work
[4] = tested on: E18 rat primary cortical neurons; experiment: Glutamate-induced excitotoxic cell death (LDH release and MTT reduction assays); type: cell-based
Text: Lactate dehydrogenase (LDH) release and 3-(4,5-dimethylthiazol-2-yl)-2,5-diphenyltetrazolium bromide (MTT) reduction assays were used to measure cell death. NeuroPureTM E18 primary rat cortical cells were commercially procured (Catalogue # N200200, Genlantis, San Diego, Calif., USA) as micro-surgically dissected regions from day 18 embryonic Sprague-Dawley rat brain. The tissues were processed for culturing according to manufacturer specifications. Briefly, enzymatic pre-treatment of the tissue was done prior to mechanical dissociation by incubating the tissues in sterile NeuroPapain enzyme solution at 30° C. for 30 minutes. Following incubation, the cells were centrifuged and transferred to fresh plating medium, where they were then dissociated into isolated neurons using a P-1000 pipettor with a sterile 1 ml plastic tip (0.8-1.0 mm diameter opening). The cells were again centrifuged and seeded in multi-well plates pre-coated with poly-D-lysine (0.15 ml/cm^2, 50 μg/ml) and maintained at 37° C. in a humidified 5% CO2 atmosphere. All experiments were performed after 9-10 days in culture. Twenty-four hours before glutamate exposure, cultures were pre-treated with both PROG (Cat. #P3972; Sigma Aldrich, St. Louis, Mo., USA) and VDH(Cat. #D1530; Sigma) separately or in combination with VDH at various concentrations. Stock solutions of PROG and VDH were prepared in dimethylsulfoxide (DMSO; Cat. #D2650; […] Glutamate was diluted in phosphate-buffered saline (PBS, pH 7.4). All reagents were filter sterilized before being added to cultures. At Day 11, cortical neurons in fresh media were separated into five treatment groups: (i) control; (ii) 24 hour treatment with 0.5 μM glutamate (Sribnick E A, et al., (2004) J Neurosci Res 76: 688-696); ([…]) with subsequent exposure to glutamate for 24 hours; (iv) 24 hour pre-treatment with VDH (1, 5, 10, 20, 40, 80, 100 nM) with subsequent exposure to glutamate for 24 hours; (v) 24 hour pre-treatment with different combinations of PROG and […]: 20 μM+VDH: 1, 5, 10, 20, 40, 80, 100 nM) with subsequent exposure to glutamate for 24 hours. Two widely accepted assays (LDH release and MTT reduction assay) for the measurement of cell viability were used. These assays are considered very reliable and reproducible with high predictive validity and are widely used in various pharmacological studies ([…], et al., (2002) Endocrinology 143: 205-212.). The LDH assay was performed as follows. […] LDH activity was measured using a Cytotoxicity Detection Kit (Roche Molecular Biochemicals, Indianapolis, Ind., USA) and quantitated by measuring absorbance at 490 nm. Data were normalized against the amount of LDH activity released from vehicle-treated control cultures receiving no glutamate. Neuronal death was also assessed by MTT [3-(4,5-dimethylthiazol-2-yl)-2,5-diphenyltetrazolium bromide] assay, which is based on the cleavage of the tetrazolium ring of the pale yellow MTT into dark blue formazan crystals by mitochondrial dehydrogenase enzyme in viable cells. These blue formazan crystals accumulate within the cells due to their impermeability to cell membrane, and are then solubilized by adding DMSO. The intensity of blue colored formazan solution is directly proportional to the number of surviving cells. Concentrations were determined by photometric analysis. Briefly, 10 μl of MTT were added per well and incubated at 37° C. for 4 hours until purple precipitate was visible. DMSO (50 μl) was added to solubilize the crystals and the absorbance was read at 570 nm.

CC(=O)[C@H]1CCC2C3CCC4=CC(=O)CC[C@]4(C)C3CC[C@@]21C (stereo partly shown) [progesterone]
morphology of neurons (neuronal processes, number of neurons) after glutamate [1]: rescued neurons | spontaneous locomotor activity (total distance, resting, stereotypy, movement time) [2]: little or no benefit | reduction of mortality ([3]; 3 days of intravenous treatment, 100 patients): over 60% | functional outcomes ([3]; 30 days post-injury): significantly improved functional outcomes | best (most effective) concentration alone against glutamate-induced neuronal death ([4]; LDH and MTT assays): 20 µM | glutamate-induced cell death compared to vehicle-only group ([4]; PROG at higher concentrations (10, 20, 40, and 80 μM), LDH and MTT assays, P<0.001): significant reduction | glutamate-induced cell death compared to vehicle-only group ([4]; PROG at lower concentrations (0.01, 0.1, 1, 5 μM), 24 h pre-treatment, glutamate 0.5 μM 24 h): did not show any decrease in cell death
